{
  "source": "patent US20110224297A1",
  "about": "“Methods of administering prostratin and structural analogs thereof” (priority 2008, published 2011)",
  "key": {"[1]": {"test": "Stability in PBS (phosphate buffer saline)", "assay_type": "physicochemical", "method": "(§1) Prostratin is stable in plasma and buffer as well as in the stability formulation (see below) developed for in vivo studies in mice. Stability tests for prostratin in mouse and monkey plasma were done using two concentration (1 and 10 mg/ml) and two temperatures (Room Temperature (RT) and 37° C.). The only loss of drug occurred in mouse plasma after 24 hr incubation at 37° C. This represented only 14% decrease in parent drug peak area over this time frame. Prostratin is stable in PBS (phosphate buffer saline) at pH 2 and pH 7."}, "rats [2]": {"system": "rats", "test": "Tolerability of intravenous infusion and oral doses in rats", "assay_type": "in vivo", "method": "In order to find out the best route of administration and the correct concentration of prostratin, the drug was administered as an intravenous infusion over three hours as well as a single and twice oral administration to 3 groups of rats. The goal of this experiment was to find out if greater amounts of prostratin can be administered over a longer period of time. This would enable obtaining median higher concentrations in the blood for a longer period of time that would be close to effective concentration found in in vitro studies.\n(§2) The oral doses were estimated based on a maximum tolerated i.v. dose of 0.4 mg/kg from the DART work in rats, but an oral bio-availability of only 29%. Thus, the maximum tolerated i.v. dose was multiplied by three (i.e., 0.4 mg/kg times 3 equals 1.2 mg/kg as the equivalent oral dose). The purpose of the two lower oral doses (both 0.8 mg/kg, therefore a total of 1.6 mg/kg) and the infusion (0.8 mg/kg over three hours) was to see if the maximum tolerated dose could be exceeded by dividing up the oral into two times 75% the max tolerated dose or as an infusion over 3 hours."}, "[3]": {"test": "Stability of prostratin in monkey plasma", "assay_type": "in vitro ADME", "details": "1 and 10 mg/ml, RT and 37° C.", "method": "as §1"}, "[4]": {"test": "In vitro metabolism in human liver microsomes", "assay_type": "in vitro ADME", "text": "In vitro metabolism of prostratin was investigated using mouse, rat, monkey, and human liver microsomes (Gentest). […] Attempts to identify the metabolite by LC/MS/MS were unsuccessful due to the low amounts present in the reaction mixtures (FIG. 1)."}, "[5]": {"test": "Solubility limit after dosing in culture medium", "assay_type": "physicochemical", "details": "plasma or biological fluid, kinetic from dmso stock, dosing volume of 1%", "method": "Dimethylsulfoxide (DMSO) was the vehicle of choice for this study. […] The stock solution and its dilutions were dosed using a dosing volume of 1% (10 μL/ml) and the vehicle control cultures were treated with 10.0 μL/ml of DMSO."}, "rhesus macaque monkeys": {"system": "rhesus macaque monkeys", "test": "Preliminary pharmacokinetic study in monkeys (mortality)", "assay_type": "in vivo", "details": "intravenous bolus 0.8 mg/kg; respiratory failure shortly after injection", "method": "During a preliminary pharmacokinetic study, rhesus macaque monkeys were administered an intravenous bolus of prostratin at 0.4 mg/kg and 0.8 mg/kg. The monkey in 0.8 mg/kg died due a respiratory failure shortly after injection. Plasma samples from these monkeys were sent to NIH and plasma concentration of prostratin was measure along with other samples at NIH using the LC/MS/MS assay."}, "[6]": {"system": "latently infected U1 cells", "test": "HIV expression (reverse transcriptase activity in supernatant) in latently infected U1 cells", "assay_type": "cell-based", "method": "The effect of prostratin on virus replication was assessed in latently infected ACH-2 and U1 cells by measuring the accumulation of reverse transcriptase activity in the supernatant of stimulated cells (Gustafson et al., 1992, J Med Chem 35(11): 1978-86).\nBriefly, 4×10^4 cells in 100 μl fresh medium were mixed with another 100 μl of medium with or without prostratin or PMA in a 96-well microtiter plate. Plates were incubated for 24-72 h at 37° C. Following incubation, supernatants were harvested, centrifuged (to remove any residual cells) and tested for reverse transcriptase activity as previously described (Gustafson et al., 1992, J Med Chem 35(11): 1978-86).\nIn these experiments, two concentrations of cells were tested (40,000 and 100,000 cells/well). It is noteworthy that the basal levels of reverse transcriptase activities were much higher in ACH-2 cells than in U1 cells."}, "[7]": {"system": "resting CD4+ T cells derived from HIV positive patients", "test": "Induction of HIV-1 expression in resting CD4+ T cells from HIV positive patients on HAART (p24, co-culture)", "assay_type": "cell-based, human", "method": "The ability of prostratin to induce HIV-1 expression in cultures of highly purified resting CD4+ T cells derived from six HIV positive patients on HAART therapy with undetectable plasma viral load (<50 copies/ml) and CD4 cell counts above 350 cells/mm^3 was evaluated. PBMCs were separated using Ficol Hypaque gradient and resting CD4+ T cells were purified using commercially available CD4+ T cell isolation kit (Miltenyi Biotec) Immediately after purification, resting CD4+ T cells were treated for 3 days with two antiretrovirals to which the patient had not previously been exposed. Antiretrovirals were used at concentrations 10 times the 50% inhibitory concentration for wild-type HIV-1 to ensure elimination of any actively replicating virus. Three days after in vitro incubation with antiretrovirals, cells were washed and incubated for 5 h, 24 h, or 48 h with prostratin (50-500 ng/ml), in the absence or presence of 1 mM valproic acid (sodium salt, SIGMA), 10 μg/ml PHA (SIGMA), 50 U IL-2/ml (AIDS depository of reagents, NIH), or in the absence of drugs. At the end of each incubation period, cells were co-cultured with CD8-depleted PBMCs from healthy donors. P24 was measured at days 0, 4, 7, 14, 21, 28, 35 and 42 days."}, "rats [8]": {"system": "rats", "test": "DART work in rats (IV injection)", "assay_type": "in vivo", "details": "for maximum tolerated i.v. dose: iv bolus", "method": "Extrapolation was performed from the DART work that was all done in rats as an IV injection (not infusion). Infusions and injections are by definition 100% bio-available meaning it all gets in.\nas §2"}},
  "data": [
    {"smiles": "CC(=O)O[C@@]12C[C@@H](C)[C@@]3(O)[C@@H](C=C(CO)C[C@]4(O)C(=O)C(C)=C[C@@H]34)[C@@H]1C2(C)C", "note": "[prostratin, 12-deoxyphorbol 13-acetate]", "values": [
      {"measurement": "stability in PBS", "setting": "[1]; pH 2", "result": "stable"},
      {"measurement": "stability in PBS", "setting": "[1]; pH 7", "result": "stable"},
      {"measurement": "Results (tolerability)", "setting": "rats [2]; female rats, 0.8 mg/kg I.V. infusion, 3 hours", "result": "All animals died"},
      {"measurement": "Results (tolerability)", "setting": "rats [2]; female rats, 1.2 mg/kg, one oral dose", "result": "2 out of 3 animals died"},
      {"measurement": "Results (tolerability)", "setting": "rats [2]; female rats, 1.8 mg/kg first oral dose followed by 1.0 mg/kg after 4 hours", "result": "2 died after first dose,"},
      {"measurement": "Results (tolerability)", "setting": "rats [2]; male rats, 1.8 mg/kg, two oral doses 4 hours apart", "result": "All animals are alive"},
      {"measurement": "Results (tolerability)", "setting": "rats [2]; male rats, 2.4 mg/kg, one oral dose", "result": "All animals are alive"},
      {"measurement": "stability in plasma", "setting": "[3]", "result": "stable"},
      {"measurement": "metabolism (time-dependent loss of parent compound)", "setting": "[4]", "result": "substantially less"},
      {"measurement": "solubility", "setting": "[5]", "result": "< 3500", "unit": "µg/mL"},
      {"measurement": "mortality", "setting": "rhesus macaque monkeys", "result": "died"},
      {"measurement": "exposure time needed to observe acceptable reverse transcriptase activity", "setting": "[6]", "result": "at least 48 h"},
      {"measurement": "lowest dose to get a reliable increase in reverse transcriptase activity", "setting": "[6]", "result": 50, "unit": "ng/mL"},
      {"measurement": "short incubation (pulsed stimulation) time leading to detectable reverse transcriptase activity", "setting": "[6]; none after 1 h and 4 h", "result": 6, "unit": "h"},
      {"measurement": "HIV-1 expression in resting T cells", "setting": "[7]; 50 ng/ml", "result": "HIV-1 activation events, although with lower frequency"},
      {"measurement": "time of co-culture with CD8-depleted PBMC after which robust HIV replication was observed", "setting": "[7]; 24 h with 150 ng/ml", "result": "2-4 weeks"},
      {"measurement": "HIV-1 expression in resting T cells", "setting": "[7]; ex-vivo treatment for 24 h with 150 ng/ml", "result": "efficient activation of the latent reservoir"},
      {"measurement": "oral bio-availability", "setting": "rats [8]", "result": 29, "unit": "%"},
      {"measurement": "maximum tolerated i.v. dose", "setting": "rats [8]", "result": 0.4, "unit": "mg/kg"},
      {"measurement": "maximum tolerated i.v. dose", "setting": "rats [8]; listed as Prostratin", "result": "Dosages in Male Rats (MTD via iv bolus dose: 0.4 mg/kg)"}
    ]}
  ]
}
